# Measured values taken from patent publication US20150018294A1, “MODULATORS OF TOUSLED KINASE IN CELLULAR PROCESSES” (priority 2012, published 2015).
# “Also recorded” adds a separate entry of the source.
# Columns and labels:
# TLK1B = target: T1, TLK1B (Homo sapiens, UniProt Q9UKI8); assay: TLK1B kinase assay (auto kinase assay with γ 32P ATP; recombinant TLK1B with Rad9 peptide); format: biochemical; conditions: for activity on TLK (TLK kinase assays): inactive defined at concentrations <10 μM
# T1 sequence (Q9UKI8 1-549 isoform Q9UKI8-3): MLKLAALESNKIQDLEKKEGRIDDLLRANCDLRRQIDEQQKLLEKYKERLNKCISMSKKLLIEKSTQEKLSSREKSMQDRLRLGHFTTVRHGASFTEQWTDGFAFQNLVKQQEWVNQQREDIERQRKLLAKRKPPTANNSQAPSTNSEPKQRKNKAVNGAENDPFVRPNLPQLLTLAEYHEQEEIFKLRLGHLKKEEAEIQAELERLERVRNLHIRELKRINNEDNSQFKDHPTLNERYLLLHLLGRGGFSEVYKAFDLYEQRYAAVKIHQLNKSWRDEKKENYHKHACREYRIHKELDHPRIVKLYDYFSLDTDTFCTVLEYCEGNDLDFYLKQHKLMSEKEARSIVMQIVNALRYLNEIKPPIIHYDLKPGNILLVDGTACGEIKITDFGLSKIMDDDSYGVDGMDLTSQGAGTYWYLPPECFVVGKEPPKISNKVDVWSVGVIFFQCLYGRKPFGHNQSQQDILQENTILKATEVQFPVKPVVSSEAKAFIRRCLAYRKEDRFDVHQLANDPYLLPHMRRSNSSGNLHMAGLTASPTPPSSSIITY
# Description: To identify inhibitors of TLK, we developed a high throughput screen with recombinant TLK1B, a small Rad9 peptide and the ADP Hunter reagent (DiscoveRx). Using this assay, the Innovative North Louisiana Experimental Therapeutics (INLET) screening core (affiliated with the FWCC) screened the Prestwick library, two other proprietary libraries, and a subset of the ChemDiv library (˜6000 compounds).
# Following the initial fluorescent screen at a compound concentration of ˜5 μM, potential hits were tested with a more sensitive auto kinase assay with γ 32P ATP. Inhibition of auto phosphorylation was confirmed by TCA precipitable counts (FIG. 1A). The inhibitors are highly specific for TLKs. […] We have additional evidence for direct binding of these compounds to the recombinant protein (to be published elsewhere).
# TlK1 immune complexes isolated from […] protein extracts using abtiserum made in our lab and Protein A beads. Adsorbed proteins were washed twice in kinase assay buffer (KAB) (50 mM HEPES pH 7.2, 10 mM MgCl2, 5 mM MnCl2, 2.5 mM EGTA, 1 mM DTT, 1 mM NaF, 0.2 mM sodium o vanadate, […] leupeptin, 2 g/ml aprotinin) and incubated for 15-30 min at 30° C. in KAB supplemented with 10 µM ATP, 10 Ci [−32P]ATP (>5000 Ci/mmol, GE). The proteins were separated on 10% SDS-PAGE gels, transferred to nitrocellulose before exposure on a Phosphorlmager; and then processed for WB with TLK1 antiserum. For kinase assays with recombinant TLK1B protein, the reactions were similar, and carried out with 10 ng TLK1B and 50 ng Rad9 peptide substrate. These were carried out to confirm the initial “hits” from the screen and further to obtain accurate ID50 values for the various inhibitors.
# D2 receptor = D2 receptor (Homo sapiens, UniProt P14416); conditions: cited from earlier work
# [1] = system: stalled replication forks; assay: Restart of stalled replication forks after release from hydroxyurea; format: cell-based; conditions: after release from hydroxyurea (HU)
# cell cycle = assay: Cell cycle and apoptosis, with or without doxo; format: cell-based; conditions: inhibitor alone, 15 μM
# Excerpt: A matching experimental set was processed by WB for evidence of cleaved PARP, and possible effects on ClnD1 accumulation, which occurs in late G1 and throughout S phases. […] The
# DNA PK = DNA PK (Homo sapiens, UniProt P78527); conditions: cited from earlier work
# MDA 231-Luc = MDA 231-Luc xenograft model; format: in vivo; conditions: female SCID/bg mice, treatment groups as in PC 3 study
# Excerpt: We used the breast cancer model cell line MDA 231-Luc, for more precise quantitation of tumor growth (photon emission is linear with the tumor cell number). Female SCID/bg mice (N=8 per group) received 1×10^6 cells and when the tumors reached ˜500 mm3 (˜104 photons/sec) they were assigned to four treatment groups, as in the study above (Sup. FIG. 4).
# PC 3 (human CaP cells) [2] = assay: IHC analysis of excised PC 3 tumors; design: species or system SCID/bg mice; conditions: mouse, in vivo
# Excerpt: Some features are immediately noticeable even upon H&E staining that could explain the tumor growth patterns. […] We interpret this as being the result of accumulation of DNA damage, including DSBs, which are not promptly repaired, even as they may be expected to occur spontaneously in many cells in the harsh environment of tumor growth. This has in fact been reported before and was attributed to localized hypoxia 24. […] The staining was not negative, as one may think, since inspection at higher magnification confirmed the expected pattern of exclusively nuclear staining and lower intensity in nucleoli. […] This is consistent with the γH2AX pattern, showing a large number of cells harboring repair foci, and thus likely arrested in replication (or progressing slowly through S phase). To further establish this, we looked at presence of RPA foci, which is indicative of stalled forks25. As expected from the large number of proliferating cells (PCNA positive) in control tumors, RPA1 Staining was very strong, and particularly in focal areas. RPA1 staining in tumors from doxo treated mice was interesting. […] In tumors from mice treated with doxo+THD, staining for RPA was very weak and consistent to that obtained for PCNA. […] However, we did stain for P Rad9 (S328) to confirm that the effects were mediated via TLK inhibition, in what we propose is part of a checkpoint deactivation mechanism following repair of spontaneous DNA damage. Indeed, numerous cells stained lightly for P Rad9 in untreated tumor cells in fact, they are perhaps a larger proportion than those staining for γH2AX that presumably represent cells with unrepaired DSBs.
# PC 3 (human CaP cells) [3] = conditions: THD 0.25 mg daily oral gavage; doxo 1 mg/kg intraperitoneal days 54, 68, 95
# Description: PC 3 model. A study was undertaken to investigate the in vivo efficacy of THD compared to doxo and to determine any sensitization conferred to the tumor cells by treatment with a combination of the two drugs. Eighty male SCID/bg mice received 1×106 PC 3 (human CaP cells) cells subcutaneous into their flanks. At day 49 post s inoculation, we began weekly tumor measurements by caliper [volume=(L×W2)[…])]. […] At day 54, daily oral gavages of THD (0.25 mg in water) were given, and intraperitoneal injections of doxo (1 mg/kg; see arrows in FIG. 7) were at days 54, 68, and 95 (last day before euthanasia). […] In any case, the tumors were excised at the end of the experiment (before the control group tumors reached the preset end point of 1500 mm3) and processed for IHC analysis. The mice were dosed on last day before euthanasia with doxo to induce bona fide DSBs.
# panel of cell lines = assay: Doubling in a larger panel of cell lines; format: cell-based; conditions: inhibitor alone
# Excerpt: inhibitors had generally similar potency in additive killing with doxo in both DU145 and PC3 (FIG. 6). The RMT potentiation is not limited to these two CaP cell lines, but is also true for MDA MB231 BCA cells (FIG. 6). […] The TLK inhibitors by themselves had little effect on MDA231 viability and doubling (Sup. FIG. 3). […] This is consistent with their proposed mechanism as inhibitors of DSB repair.
# [4] = system: kinase panel (KinomeScan); assay: KinomeScan kinase panel (DiscoverRx); format: binding; conditions: significantly inhibited = >60% at 10 μM
# GST TLK1B = target: T2, GST TLK1B (Homo sapiens, UniProt Q9UKI8); assay: Binding to GST TLK1B affixed to Immobilon filter; conditions: color will not wash out
# T2 sequence (Q9UKI8 1-549 isoform Q9UKI8-3): T1 sequence (Q9UKI8 1-549 isoform Q9UKI8-3)
# Excerpt: To determine how structurally related antipsychotic drugs might differ from each other and produce different biological effects, we analyzed optimized drug structures by quantum mechanics (QM) methods. Drugs of interest were built with MarvinSketch 5.3.2 (ChemAxon) for initial optimization of the 3D structure. For the panels shown here (Sup. FIG. 1), orbitals from the highest occupied molecular orbital (HOMO) and the lowest unoccupied molecular orbital (LUMO) have been depicted. […] The planar heterocyclic ring structure of staurosporine and its out of plane aminated glucose moiety are reminiscent of the structure of the phenothiazines. Bulky substituents on the main phenothiazine ring, such as fluorine groups, may only be tolerated in a certain orientation relative to the alkyl side chain, depending upon the reactivity of the side chain. Moreover, the fit at the binding site will be determined by whether active groups in the drugs (rings vs. side chains) serve as donors or acceptors in non bond interactions (e.g., it bonding and van der Waals interactions). While QM characterization of the drugs is not definitive, certain trends emerged from this analysis. In Sup. […] In fact, methylene blue, which stains nucleic acids but not most proteins, remains so tightly bound to GST TLK1B that after its affixation to an Immobilon filter the color bound to the protein will not wash out.
# [5] = system: Rad9 S328 phosphorylation in DU145 cells; assay: Rad9 S328 phosphorylation and checkpoint markers in DU145 cells after H2O2; format: cell-based, human
# Description: The inhibitors worked as expected on the pattern of phosphorylation of Rad9 […]. After treatment of DU145 cells with H2O2 for 10 min to generate breaks, there is a corresponding wave of phosphorylation and dephosphorylation of […] after completion of repair (FIG. 5) that matches the pattern of activity of TLK1/1B TLKs are the only known kinases that phosphorylate Rad9 […] 4. Generation of DSBs causes transient inhibition of TLK1 and simultaneous synthesis of TLK1B, which then results in hyper phosphorylation of […] upon restoration of kinase activity [FIG. 5A; 5]. Once H2O2 is degraded and most DNA breaks are repaired, the phosphorylation returns to baseline. The inhibitors, PPH (LS125) in particular, blocked the activation of TLK and consequent phosphorylation of Rad9 ([…]) (5C). […] FIG. 5). A key role of TLKs is then to participate in restoration of cell cycle upon completion of repair. Interfering with this process has dire consequences for cell viability; more likely for cancer cells that are genetically more unstable and already have defects in DNA repair functions, if not just for their reliance on these kinases.
# D2 receptor, sequence (P14416 whole entry): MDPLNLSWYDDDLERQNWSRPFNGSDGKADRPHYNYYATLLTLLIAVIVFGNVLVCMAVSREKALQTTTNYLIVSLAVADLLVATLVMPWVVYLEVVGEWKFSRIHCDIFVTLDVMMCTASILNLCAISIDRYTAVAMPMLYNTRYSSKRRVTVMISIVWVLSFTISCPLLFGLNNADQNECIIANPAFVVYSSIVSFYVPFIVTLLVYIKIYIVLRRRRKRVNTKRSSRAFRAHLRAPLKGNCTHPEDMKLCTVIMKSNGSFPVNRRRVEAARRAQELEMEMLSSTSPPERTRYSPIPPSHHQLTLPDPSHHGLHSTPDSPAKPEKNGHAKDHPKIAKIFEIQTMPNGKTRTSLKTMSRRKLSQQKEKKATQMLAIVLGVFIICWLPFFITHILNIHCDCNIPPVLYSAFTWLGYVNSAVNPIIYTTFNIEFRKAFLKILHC
smiles,measurement,setting,value
"OCCN1CCN(CCCN2c3ccccc3Sc3ccc(C(F)(F)F)cc32)CC1 [FF, fluphenazine]",activity on TLK (TLK kinase assays),TLK1B,inactive for TLK
same,D2 receptor antagonism,D2 receptor,more potent D2 receptor antagonist than either TFP (active) or THD
"CN1CCN(CCCN2c3ccccc3Sc3ccc(C(F)(F)F)cc32)CC1 [TFP, trifluoperazine]",restart of stalled replication forks and linked phosphorylation of Rad9 (S328),[1],greatly extends this process
same,activity on TLK (TLK kinase assays),TLK1B,active; also recorded: identified as TLK inhibitors
same,inhibition of TLKs,TLK1B; sub toxic concentrations 10-20 μM,completely inhibit TLKs
same,(apoptotic) sub G1 cells,cell cycle,very modest increase
same,cleaved PARP,cell cycle,very modest evidence of cleaved PARP
same,effect on the cell cycle,cell cycle,little effect on the cell cycle
same,DNA PK inhibition,DNA PK; TFP 10-20 μM,not inhibited
same,"reported inhibition of DNA PK in vitro, concentration",DNA PK; in vitro,0.1 to 0.2 mM
c1ccc2c(c1)Nc1ccccc1S2 [phenothiazine],activity on TLK (TLK kinase assays),TLK1B,highly inhibitory
"COc1cccc2c1C(=O)c1c(O)c3c(c(O)c1C2=O)C[C@@](O)(C(=O)CO)C[C@@H]3O[C@H]1C[C@H](N)[C@H](O)[C@H](C)O1 [doxo, doxorubicin]",tumor growth (photon emission),MDA 231-Luc,insufficient to stop growth of tumors
same,P Rad9 (S328) staining,PC 3 (human CaP cells) [2],much stronger staining for P Rad9
same,RPA staining,PC 3 (human CaP cells) [2],overall staining was weaker for most areas of the section
same,cellular density of the tumor (H&E staining),PC 3 (human CaP cells) [2],only slightly decreased the cellular density of the tumor
same,γH2AX positive cells,PC 3 (human CaP cells) [2],a large proportion
same,tumor growth,PC 3 (human CaP cells) [3],definite trend was seen for doxo reducing tumor growth
"CSc1ccc2c(c1)N(CCC1CCCCN1C)c1ccccc1S2 (stereo not drawn) [THD, Thioridazine]",tumor growth (photon emission),MDA 231-Luc,effective at controlling tumor increase
same,P Rad9 (S328) staining,PC 3 (human CaP cells) [2],severe suppression of P Rad9
same,PCNA positive cells,PC 3 (human CaP cells) [2],significantly fewer PCNA positive cells
same,cellular density of the tumor (H&E staining),PC 3 (human CaP cells) [2],clearly reduced the tumor density
same,γH2AX positive cells,PC 3 (human CaP cells) [2],a large proportion of positive staining cells
same,activity on TLK (TLK kinase assays),TLK1B,active; also recorded: identified as TLK inhibitors
same,cell doubling / growth,panel of cell lines,not found very many cancer cell lines that were sensitive to THD
same,inhibition of other kinases in the panel,[4],no other kinase in the panel was significantly inhibited
CN(C)c1ccc2nc3ccc(=[N+](C)C)cc-3sc2c1 [methylene blue],activity on TLK (TLK kinase assays),TLK1B,highly inhibitory
same,binding to GST TLK1B,GST TLK1B,tightly bound
"CCSc1ccc2c(c1)N(CCCN1CCN(C)CC1)c1ccccc1S2 [TEZ, thiethylperazine]",activity on TLK (TLK kinase assays),TLK1B,identified as TLK inhibitors
"CN(C)CCCN1c2ccccc2Sc2ccccc21 [PMZ, promazine]",activity on TLK (TLK kinase assays),TLK1B,identified as TLK inhibitors
same,D2 receptor antagonism,D2 receptor,does not have much activity as a D2 antagonist
"OCCN1CCN(CCCN2c3ccccc3Sc3ccc(Cl)cc32)CC1 [PPH, perphenazine]",activity on TLK (TLK kinase assays),TLK1B,identified as TLK inhibitors
same,Chk1 activation (P Chk1 S345),[5]; H2O2,persistent activation of Chk1
same,cleavage of cdc25A,[5]; H2O2,elicited much faster
same,phosphorylation of Rad17,[5]; H2O2,prolonged phosphorylation of Rad17
same,activation of TLK and phosphorylation of Rad9 (S328),[5]; H2O2 for 10 min,blocked the activation of TLK and consequent phosphorylation of Rad9 (S328)
"CN1CCN(CCCN2c3ccccc3Sc3ccc(Cl)cc32)CC1 [PCP, prochlorperazine]",activity on TLK (TLK kinase assays),TLK1B,inactive
